From ChEMBL document CHEMBL6134819, “Discovery of novel tranylcypromine-indazole-based derivatives as LSD1 inhibitors for acute myeloid leukemia treatment” (Eur J Med Chem, 2025)
The source made the active and inactive calls. No cut-off for these calls is given here.

Experiments:
[1] = Cmax in male Sprague-Dawley rat at 1 mg/kg, iv measured up to 24 hrs by LC-MS/MS analysis; assay type: ADME, organism-based; settings: in vivo
[2] = AUC (0 to infinity) in male Sprague-Dawley rat at 10 mg/kg, po measured up to 24 hrs by LC-MS/MS analysis; assay type: ADME, organism-based; settings: in vivo
MV4-11 [3] = assay: Induction of apoptosis in human MV4-11 cells assessed as early apoptotic cells at 4 micromol/L measured after 48 hrs by Annexin V-FITC/PI double staining based flow cytometry analysis (reference value: 2.01 %); assay type: functional; settings: dose 4 µmol/L, at 4 µM
THP-1 = assay: Antiproliferative activity against human THP-1 cells assessed as inhibition of cell growth measured after 7 days by cell-titer glo assay; assay type: functional, cell-based; settings: THP-1, 168 h
[4] = Solubility in PBS buffer at pH 7.4 measured after 2 hrs by LC-MS/MS analysis; assay type: physicochemical
[5] = Metabolic stability in mouse liver microsomes assessed as intrinsic clearance measured up to 60 mins in presence of NADPH by LC-MS/MS analysis; assay type: ADME, Microsome; settings: read-out: CLH
MV4-11 [6] = assay: Induction of apoptosis in human MV4-11 cells assessed as early apoptotic cells at 3 micromol/L measured after 48 hrs by Annexin V-FITC/PI double staining based flow cytometry analysis (reference value: 2.01 %); assay type: functional; settings: dose 3 µmol/L, at 3 µM
[7] = Metabolic stability in mouse liver microsomes assessed as half life measured up to 60 mins in presence of NADPH by LC-MS/MS analysis; assay type: ADME, Microsome
[8] = target: T1, Lysine-specific histone demethylase 1A (Homo sapiens, UniProt O60341); assay: Inhibition of LSD1 in human MV4-11 cells assessed as increase in H3K4 expression level at 2 to 4 micromol/L measured after 48 hrs by Western blot analysis; assay type: cell-based; settings: dose 2-4 µmol/L
[9] = AUC (0 to t) in male Sprague-Dawley rat at 1 mg/kg, iv measured up to 24 hrs by LC-MS/MS analysis; assay type: ADME, organism-based; settings: in vivo
MV4-11 [10] = assay: Induction of apoptosis in human MV4-11 cells assessed as viable cells at 3 micromol/L measured after 48 hrs by Annexin V-FITC/PI double staining based flow cytometry analysis (reference value: 89.13%); assay type: functional; settings: MV4-11, 48 h, dose 3 µmol/L, read-out: Activity
MV4-11 [11] = assay: Induction of apoptosis in human MV4-11 cells assessed as increase in cleaved PARP level at 2 to 4 micromol/L measured after 72 hrs by Western blot analysis; assay type: functional, cell-based; settings: dose 2-4 µmol/L
[12] = target: T2, Amine oxidase [flavin-containing] B (Homo sapiens, UniProt P27338); assay: Inhibition of human N-terminal Flag-tagged MAOB extracted baculovirus infected in Sf9 cells measured after 0.5 hrs by MAO-Glo Assay; assay type: cell-based
T2 sequence (P27338 whole entry): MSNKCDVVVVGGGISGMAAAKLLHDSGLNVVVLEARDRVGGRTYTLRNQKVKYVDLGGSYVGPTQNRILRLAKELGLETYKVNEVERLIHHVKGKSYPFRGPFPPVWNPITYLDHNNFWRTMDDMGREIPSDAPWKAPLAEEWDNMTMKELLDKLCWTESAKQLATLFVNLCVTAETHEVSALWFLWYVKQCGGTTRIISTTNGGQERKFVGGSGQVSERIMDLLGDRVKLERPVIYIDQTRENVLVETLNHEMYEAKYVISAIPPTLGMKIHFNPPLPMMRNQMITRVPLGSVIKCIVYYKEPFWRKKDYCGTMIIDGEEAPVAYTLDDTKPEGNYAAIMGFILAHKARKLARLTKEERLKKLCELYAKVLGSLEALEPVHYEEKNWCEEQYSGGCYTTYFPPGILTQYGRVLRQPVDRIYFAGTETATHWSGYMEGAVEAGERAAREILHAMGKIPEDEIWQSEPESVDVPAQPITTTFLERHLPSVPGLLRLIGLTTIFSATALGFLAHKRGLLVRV

MV4-11 [13] = assay: Induction of apoptosis in human MV4-11 cells assessed as increase in early apoptosis measured after 48 hrs by Annexin V-FITC/PI double staining based flow cytometry analysis; assay type: functional, cell-based; settings: dose 2-4 µmol/L
[14] = target: T1, Lysine-specific histone demethylase 1A; assay: Inhibition of LSD1 in human MV4-11 cells assessed as increase in H3K4me2 expression level at 2 to 4 micromol/L measured after 48 hrs by Western blot analysis; assay type: cell-based; settings: dose 2-4 µmol/L
[15] = Metabolic stability in human liver microsomes assessed as intrinsic clearance measured up to 60 mins in presence of NADPH by LC-MS/MS analysis; assay type: ADME, Microsome; settings: read-out: CLH
MV4-11 [16] = assay: Induction of apoptosis in human MV4-11 cells assessed as necrotic cells at 4 micromol/L measured after 48 hrs by Annexin V-FITC/PI double staining based flow cytometry analysis (reference value: 1.16 %); assay type: functional; settings: dose 4 µmol/L, at 4 µM
[17] = Octanol-water partition coefficient, logP of the compound; assay type: physicochemical
[18] = target: T1, Lysine-specific histone demethylase 1A; assay: Inhibition of LSD1 in human MV4-11 cells assessed as increase in H3K4me1 expression level at 2 to 4 micromol/L measured after 48 hrs by Western blot analysis; assay type: cell-based; settings: dose 2-4 µmol/L

Structure (SMILES): Cl.O=S(=O)(c1ccccc1)n1ncc2cc(-n3cc(CN[C@@H]4C[C@H]4c4ccc(F)c(F)c4)nn3)ccc21
- Cmax [1]: 869 ng/mL
- AUC(0-inf) [2]: 290 ng·h/mL
- Activity (MV4-11 [3]): 4.28%
- IC50 (THP-1): 1.96 µM
- solubility at 2 h [4]: 1.43 µM
- CLint scaled [5]: 261 mL/min/kg
- Activity (MV4-11 [6]): 3.18%
- half-life [7]: 5.3 min
- inhibition [8]: Active
- AUC(0-t) at 24 h [9]: 481 ng·h/mL
- viability at 3 µM (MV4-11 [10]): 80.8%
- Activity (MV4-11 [11]): Active
- IC50 [12]: 2.65 µM
- Activity (MV4-11 [13]): Dose-dependent-effect
- inhibition [14]: Active
- CLint scaled [15]: 108 mL/min/kg
- Activity (MV4-11 [16]): 2.91%
- logP [17]: 4.2
- inhibition [18]: Active
